The source of these data is publication PMC9783573, “Introduction of a SiFA Moiety into the D-Glutamate Chain of DOTA-PP-F11N Results in Radiohybrid-Based CCK-2R-Targeted Compounds with Improved Pharmacokinetics In Vivo” (Pharmaceuticals, 2022).

Starred links: 1 amine or outer side, 2 acyl side, 3 side chain; linkers in the order of their positions; H or OH if unused. Non-standard residues stand in square brackets, D forms with d. Residues, ends and D or L forms follow the SMILES beside them. *: point of attachment. X1 = O=C(O)CN1CCN(CC(=O)O)CCN([C@H](CCC(=O)*)C(=O)O)CCN(CC(=O)O)CC1; Benzoyl(4-SiFtBu2) = CC(C)(C)[Si](F)(c1ccc(C(=O)*)cc1)C(C)(C)C; DOTA = O=C(O)CN1CCN(CC(=O)O)CCN(CC(=O)*)CCN(CC(=O)O)CC1; d(γGlu) = O=C(O)[C@@H](CCC(=O)[*:2])N[*:1]; Nle = CCCC[C@H](N)C(=O)O; dDap = NC[C@@H](N)C(=O)O

One data set in a line: Lipophilicity, n-octanol/PBS (pH 7.4) distribution coefficient. Particulars: 177Lu-labelled peptide; n-octanol/PBS pH 7.4; read-out: logD7.4. The format is physicochemical. The protocol:
Lipophilicity (depicted as octanol-phosphate-buffered saline solution (PBS, pH = 7.4) distribution coefficient, logD7.4) was determined via dissolving the ^177Lu-labelled peptide (approx. 1 MBq) in a mixture (1/1, v/v) of n-octanol and PBS. The suspension was vortexed in a reaction vial (1.5 mL) for 3 min at RT and the vial was centrifuged at 9000× […] for 5 min (Biofuge 15, Heraus Sepatech GmbH, Osterode, Germany). 200 μL aliquots of both layers were measured separately in a γ-counter (Perkin Elmer, Waltham, MA, USA). The experiment was repeated at least five times.
Take `CCCC[C@H](NC(=O)[C@H](Cc1c[nH]c2ccccc12)NC(=O)CNC(=O)[C@H](Cc1ccc(O)cc1)NC(=O)[C@H](C)NC(=O)CC[C@@H](NC(=O)CC[C@@H](NC(=O)CC[C@@H](NC(=O)CC[C@@H](NC(=O)CC[C@@H](NC(=O)CC[C@@H](NC(=O)CC[C@@H](NC(=O)CC[C@@H](NC(=O)[C@@H](CNC(=O)c1ccc([Si](F)(C(C)(C)C)C(C)(C)C)cc1)NC(=O)CC[C@H](C(=O)O)N1CCN(CC(=O)O)CCN(CC(=O)O)CCN(CC(=O)O)CC1)C(=O)O)C(=O)O)C(=O)O)C(=O)O)C(=O)O)C(=O)O)C(=O)O)C(=O)O)C(=O)N[C@@H](CC(=O)O)C(=O)N[C@@H](Cc1ccccc1)C(N)=O` [[nat/177Lu]Lu-(R)-DOTAGA-rhCCK-18, metal not drawn]: the logD is -2.16 ± 0.09.
Still for that read-out and setting: in the case of `CCCC[C@H](NC(=O)[C@H](Cc1c[nH]c2ccccc12)NC(=O)CNC(=O)[C@H](Cc1ccc(O)cc1)NC(=O)[C@H](C)NC(=O)[C@@H](CNC(=O)c1ccc([Si](F)(C(C)(C)C)C(C)(C)C)cc1)NC(=O)[C@@H](CCC(=O)O)NC(=O)[C@@H](CCC(=O)O)NC(=O)[C@@H](CCC(=O)O)NC(=O)[C@@H](CCC(=O)O)NC(=O)[C@@H](CCC(=O)O)NC(=O)[C@@H](CCC(=O)O)NC(=O)CC[C@H](C(=O)O)N1CCN(CC(=O)O)CCN(CC(=O)O)CCN(CC(=O)O)CC1)C(=O)N[C@@H](CC(=O)O)C(=O)N[C@@H](Cc1ccccc1)C(N)=O` [[nat/177Lu]Lu-(R)-DOTAGA-rhCCK-1, metal not drawn] (X1-[dE][dE][dE][dE][dE][dE][dDap](Benzoyl(4-SiFtBu2))AYGW[Nle]DF-NH2) it was -1.71 ± 0.1; in that of `CCCC[C@H](NC(=O)[C@H](Cc1c[nH]c2ccccc12)NC(=O)CNC(=O)[C@H](Cc1ccc(O)cc1)NC(=O)[C@H](C)NC(=O)CC[C@@H](NC(=O)CC[C@@H](NC(=O)CC[C@@H](NC(=O)[C@@H](CNC(=O)c1ccc([Si](F)(C(C)(C)C)C(C)(C)C)cc1)NC(=O)CC[C@@H](NC(=O)CC[C@@H](NC(=O)CC[C@@H](NC(=O)CC[C@H](C(=O)O)N1CCN(CC(=O)O)CCN(CC(=O)O)CCN(CC(=O)O)CC1)C(=O)O)C(=O)O)C(=O)O)C(=O)O)C(=O)O)C(=O)O)C(=O)N[C@@H](CC(=O)O)C(=O)N[C@@H](Cc1ccccc1)C(N)=O` [[nat/177Lu]Lu-(R)-DOTAGA-rhCCK-13, metal not drawn] ({X1-d(γGlu)-d(γGlu)-d(γGlu)}-[dDap](Benzoyl(4-SiFtBu2))[d(γGlu)][d(γGlu)][d(γGlu)]AYGW[Nle]DF-NH2), -2.57 ± 0.06; in that of `CCCC[C@H](NC(=O)[C@H](Cc1c[nH]c2ccccc12)NC(=O)CNC(=O)[C@H](Cc1ccc(O)cc1)NC(=O)[C@H](C)NC(=O)CC[C@@H](NC(=O)CC[C@@H](NC(=O)CC[C@@H](NC(=O)CC[C@@H](NC(=O)CC[C@@H](NC(=O)[C@@H](CNC(=O)c1ccc([Si](F)(C(C)(C)C)C(C)(C)C)cc1)NC(=O)CC[C@@H](NC(=O)CC[C@H](C(=O)O)N1CCN(CC(=O)O)CCN(CC(=O)O)CCN(CC(=O)O)CC1)C(=O)O)C(=O)O)C(=O)O)C(=O)O)C(=O)O)C(=O)O)C(=O)N[C@@H](CC(=O)O)C(=O)N[C@@H](Cc1ccccc1)C(N)=O` [[nat/177Lu]Lu-(R)-DOTAGA-rhCCK-15, metal not drawn] ({X1-d(γGlu)}-[dDap](Benzoyl(4-SiFtBu2))[d(γGlu)][d(γGlu)][d(γGlu)][d(γGlu)][d(γGlu)]AYGW[Nle]DF-NH2), -2.5 ± 0.02.
Still for that read-out and setting: in the case of `CCCC[C@H](NC(=O)[C@H](Cc1c[nH]c2ccccc12)NC(=O)CNC(=O)[C@H](Cc1ccc(O)cc1)NC(=O)[C@H](C)NC(=O)[C@@H](CCC(=O)O)NC(=O)[C@@H](CCC(=O)O)NC(=O)[C@@H](CCC(=O)O)NC(=O)[C@@H](CNC(=O)c1ccc([Si](F)(C(C)(C)C)C(C)(C)C)cc1)NC(=O)[C@@H](CCC(=O)O)NC(=O)[C@@H](CCC(=O)O)NC(=O)[C@@H](CCC(=O)O)NC(=O)CC[C@H](C(=O)O)N1CCN(CC(=O)O)CCN(CC(=O)O)CCN(CC(=O)O)CC1)C(=O)N[C@@H](CC(=O)O)C(=O)N[C@@H](Cc1ccccc1)C(N)=O` [[nat/177Lu]Lu-(R)-DOTAGA-rhCCK-4, metal not drawn] (X1-[dE][dE][dE][dDap](Benzoyl(4-SiFtBu2))[dE][dE][dE]AYGW[Nle]DF-NH2) it was -2.19 ± 0.08; in that of `CCCC[C@H](NC(=O)[C@H](Cc1c[nH]c2ccccc12)NC(=O)CNC(=O)[C@H](Cc1ccc(O)cc1)NC(=O)[C@H](C)NC(=O)[C@@H](CNC(=O)c1ccc([Si](F)(C(C)(C)C)C(C)(C)C)cc1)NC(=O)CC[C@@H](NC(=O)CC[C@@H](NC(=O)CC[C@@H](NC(=O)CC[C@@H](NC(=O)CC[C@@H](NC(=O)CC[C@@H](NC(=O)CC[C@H](C(=O)O)N1CCN(CC(=O)O)CCN(CC(=O)O)CCN(CC(=O)O)CC1)C(=O)O)C(=O)O)C(=O)O)C(=O)O)C(=O)O)C(=O)O)C(=O)N[C@@H](CC(=O)O)C(=O)N[C@@H](Cc1ccccc1)C(N)=O` [[nat/177Lu]Lu-(R)-DOTAGA-rhCCK-10, metal not drawn] ({X1-d(γGlu)-d(γGlu)-d(γGlu)-d(γGlu)-d(γGlu)-d(γGlu)}-[dDap](Benzoyl(4-SiFtBu2))AYGW[Nle]DF-NH2), -2.15 ± 0.08; in that of `CCCC[C@H](NC(=O)[C@H](Cc1c[nH]c2ccccc12)NC(=O)CNC(=O)[C@H](Cc1ccc(O)cc1)NC(=O)[C@H](C)NC(=O)CC[C@@H](NC(=O)CC[C@@H](NC(=O)CC[C@@H](NC(=O)CC[C@@H](NC(=O)[C@@H](CNC(=O)c1ccc([Si](F)(C(C)(C)C)C(C)(C)C)cc1)NC(=O)CC[C@@H](NC(=O)CC[C@@H](NC(=O)CC[C@H](C(=O)O)N1CCN(CC(=O)O)CCN(CC(=O)O)CCN(CC(=O)O)CC1)C(=O)O)C(=O)O)C(=O)O)C(=O)O)C(=O)O)C(=O)O)C(=O)N[C@@H](CC(=O)O)C(=O)N[C@@H](Cc1ccccc1)C(N)=O` [[nat/177Lu]Lu-(R)-DOTAGA-rhCCK-14, metal not drawn] ({X1-d(γGlu)-d(γGlu)}-[dDap](Benzoyl(4-SiFtBu2))[d(γGlu)][d(γGlu)][d(γGlu)][d(γGlu)]AYGW[Nle]DF-NH2), -2.26 ± 0.05.
With `CCCC[C@H](NC(=O)[C@H](Cc1c[nH]c2ccccc12)NC(=O)CNC(=O)[C@H](Cc1ccc(O)cc1)NC(=O)[C@H](C)NC(=O)[C@@H](CCC(=O)O)NC(=O)[C@@H](CCC(=O)O)NC(=O)[C@@H](CCC(=O)O)NC(=O)[C@@H](CCC(=O)O)NC(=O)[C@@H](CCC(=O)O)NC(=O)[C@@H](CNC(=O)c1ccc([Si](F)(C(C)(C)C)C(C)(C)C)cc1)NC(=O)[C@@H](CCC(=O)O)NC(=O)CC[C@H](C(=O)O)N1CCN(CC(=O)O)CCN(CC(=O)O)CCN(CC(=O)O)CC1)C(=O)N[C@@H](CC(=O)O)C(=O)N[C@@H](Cc1ccccc1)C(N)=O` [[nat/177Lu]Lu-(R)-DOTAGA-rhCCK-6, metal not drawn] (X1-[dE][dDap](Benzoyl(4-SiFtBu2))[dE][dE][dE][dE][dE]AYGW[Nle]DF-NH2), the logD is -2.22 ± 0.08.
The same measure, in the same setting: in the case of `CCCC[C@H](NC(=O)[C@H](Cc1c[nH]c2ccccc12)NC(=O)CNC(=O)[C@H](Cc1ccc(O)cc1)NC(=O)[C@H](C)NC(=O)[C@@H](CCC(=O)O)NC(=O)[C@@H](CNC(=O)c1ccc([Si](F)(C(C)(C)C)C(C)(C)C)cc1)NC(=O)[C@@H](CCC(=O)O)NC(=O)[C@@H](CCC(=O)O)NC(=O)[C@@H](CCC(=O)O)NC(=O)[C@@H](CCC(=O)O)NC(=O)[C@@H](CCC(=O)O)NC(=O)CC[C@H](C(=O)O)N1CCN(CC(=O)O)CCN(CC(=O)O)CCN(CC(=O)O)CC1)C(=O)N[C@@H](CC(=O)O)C(=O)N[C@@H](Cc1ccccc1)C(N)=O` [[nat/177Lu]Lu-(R)-DOTAGA-rhCCK-2, metal not drawn] (X1-[dE][dE][dE][dE][dE][dDap](Benzoyl(4-SiFtBu2))[dE]AYGW[Nle]DF-NH2) it was -1.95 ± 0.09.
As to `CCCC[C@H](NC(=O)[C@H](Cc1c[nH]c2ccccc12)NC(=O)CNC(=O)[C@H](Cc1ccc(O)cc1)NC(=O)[C@H](C)NC(=O)CC[C@@H](NC(=O)[C@@H](CNC(=O)c1ccc([Si](F)(C(C)(C)C)C(C)(C)C)cc1)NC(=O)CC[C@@H](NC(=O)CC[C@@H](NC(=O)CC[C@@H](NC(=O)CC[C@@H](NC(=O)CC[C@@H](NC(=O)CC[C@H](C(=O)O)N1CCN(CC(=O)O)CCN(CC(=O)O)CCN(CC(=O)O)CC1)C(=O)O)C(=O)O)C(=O)O)C(=O)O)C(=O)O)C(=O)O)C(=O)N[C@@H](CC(=O)O)C(=O)N[C@@H](Cc1ccccc1)C(N)=O` [[nat/177Lu]Lu-(R)-DOTAGA-rhCCK-11, metal not drawn] ({X1-d(γGlu)-d(γGlu)-d(γGlu)-d(γGlu)-d(γGlu)}-[dDap](Benzoyl(4-SiFtBu2))[d(γGlu)]AYGW[Nle]DF-NH2), the logD was -2.23 ± 0.07.

Staying with this data set, now noted: pH 7.4.
For `CSCC[C@H](NC(=O)[C@H](Cc1c[nH]c2ccccc12)NC(=O)CNC(=O)[C@H](Cc1ccc(O)cc1)NC(=O)[C@H](C)NC(=O)CC[C@@H](NC(=O)CC[C@@H](NC(=O)CC[C@@H](NC(=O)CC[C@@H](NC(=O)CC[C@@H](NC(=O)CC[C@@H](NC(=O)CN1CCN(CC(=O)O)CCN(CC(=O)O)CCN(CC(=O)O)CC1)C(=O)O)C(=O)O)C(=O)O)C(=O)O)C(=O)O)C(=O)O)C(=O)N[C@@H](CC(=O)O)C(=O)N[C@@H](Cc1ccccc1)C(N)=O` [[nat/177Lu]Lu-γ-CP04, metal not drawn], the logD was -4.3 ± 0.08.
On the same count and under the same terms, the result for `CCCC[C@H](NC(=O)[C@H](Cc1c[nH]c2ccccc12)NC(=O)CNC(=O)[C@H](Cc1ccc(O)cc1)NC(=O)[C@H](C)NC(=O)CC[C@@H](NC(=O)CC[C@@H](NC(=O)CC[C@@H](NC(=O)CC[C@@H](NC(=O)CC[C@@H](NC(=O)CC[C@@H](NC(=O)CN1CCN(CC(=O)O)CCN(CC(=O)O)CCN(CC(=O)O)CC1)C(=O)O)C(=O)O)C(=O)O)C(=O)O)C(=O)O)C(=O)O)C(=O)N[C@@H](CC(=O)O)C(=O)N[C@@H](Cc1ccccc1)C(N)=O` [[nat/177Lu]Lu-DOTA-PP-γ-F11N, metal not drawn] ({DOTA-d(γGlu)-d(γGlu)-d(γGlu)-d(γGlu)-d(γGlu)-d(γGlu)}-AYGW[Nle]DF-NH2) reads -4.38 ± 0.05.
